From the supplement of paper PMC10307832

Assays:
Experiment in all cases: relative viability (nuclei count vs DMSO), 5 days (fraction); higher = more cells survive
[1] = compound: CN1CCN(CC1)C2=CC(=C(C=C2)NC3=NC=C4C(=N3)N(C5=CC=CC=C5C(=O)N4C)C)OC [XMD8-85] + CC(C)C[C@H](NC(=O)[C@H](Cc1ccccc1)NC(=O)c1cnccn1)B(O)O [Bortezomib] (partner 0.002 µM)
How it was run: (§1)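 One day after seeding in 1536-well plates, lung cancer cell lines were dosed by pin tool. Dosing was either single-drug or a fixed anchor-drug dose plus five library-drug doses (not always all listed) in √10 steps. After 5 days, nuclei were stained in one fix-and-stain step and counted on 4× images, and relative viability is the nuclei count of treated wells over that of vehicle wells, given as the median of duplicate plates.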

[2] = compound: CN1CCN(CC1)C2=CC(=C(C=C2)NC3=NC=C4C(=N3)N(C5=CC=CC=C5C(=O)N4C)C)OC [XMD8-85] + C[C@]1(O)C[C@@H](c2nc(-c3ccc4ccc(-c5ccccc5)nc4c3)c3c(N)nccn32)C1 [Linsitinib] (partner 1 µM)
How it was run: as §1

[3] = compound: O=C(O)C(Cc1ccccc1[N+](=O)[O-])=NNc1nc(-c2ccc(Cl)c(Cl)c2)cs1 (mixture of isomers) [4EGI-1] + Cc1nc(Nc2ncc(C(=O)Nc3c(C)cccc3Cl)s2)cc(N2CCN(CCO)CC2)n1 [Dasatinib] (partner 0.075 µM)
How it was run: as §1

[4] = compound: O=C(O)C(Cc1ccccc1[N+](=O)[O-])=NNc1nc(-c2ccc(Cl)c(Cl)c2)cs1 (mixture of isomers) [4EGI-1] + CC(=O)c1c(C)c2cnc(Nc3ccc(N4CCNCC4)cn3)nc2n(C2CCCC2)c1=O [Palbociclib] (partner 0.5 µM)
How it was run: as §1

| Cell Line | relative viability ([1]; first compound 0.08 µM) | relative viability ([1]; first compound 0.253 µM) | relative viability ([1]; first compound 0.8 µM) | relative viability ([1]; first compound 2.53 µM) | relative viability ([1]; first compound 8 µM) | relative viability ([2]; first compound 0.08 µM) | relative viability ([2]; first compound 0.253 µM) | relative viability ([2]; first compound 0.8 µM) | relative viability ([2]; first compound 2.53 µM) | relative viability ([2]; first compound 8 µM) | relative viability ([3]; first compound 0.5 µM) | relative viability ([3]; first compound 1.581 µM) | relative viability ([3]; first compound 5 µM) | relative viability ([3]; first compound 15.81 µM) | relative viability ([3]; first compound 50 µM) | relative viability ([4]; first compound 0.5 µM) | relative viability ([4]; first compound 1.581 µM) | relative viability ([4]; first compound 5 µM) | relative viability ([4]; first compound 15.81 µM) | relative viability ([4]; first compound 50 µM) |
| --- | --- | --- | --- | --- | --- | --- | --- | --- | --- | --- | --- | --- | --- | --- | --- | --- | --- | --- | --- | --- |
| NCI-H596 | 0.838 | 0.903 | 1.22 | 1.09 | 0.899 | 0.956 | 1.12 | 1.08 | 0.961 | 0.628 | 0.714 | 0.566 | 0.584 | 0.582 | 0.491 |  |  |  |  |  |
| NCI-H2009 | 0.98 | 0.931 | 1.16 | 0.988 | 0.352 | 1.17 | 1.12 | 1.21 | 1.23 | 0.636 | 0.344 | 0.302 | 0.312 | 0.269 | 0.146 | 0.251 | 0.243 | 0.224 | 0.196 | 0.149 |
| NCI-H2228 | 1.15 | 0.872 | 0.924 | 1.04 | 0.582 | 0.587 | 0.944 | 0.609 | 0.858 | 0.444 | 0.472 | 0.653 | 0.496 | 0.552 | 0.13 | 1.22 | 0.708 | 0.785 | 0.787 | 0.314 |
| NCI-H2085 | 0.92 | 1.03 | 1.18 | 0.95 |  | 0.585 | 0.943 | 0.935 | 0.885 | 0.674 | 0.318 | 0.229 | 0.272 | 0.216 | 0.271 | 0.518 | 0.462 | 0.453 | 0.474 | 0.339 |
| SW 900 |  |  |  |  |  |  |  |  |  |  | 0.641 |  | 0.528 | 0.487 | 0.547 | 0.552 | 0.573 | 0.69 | 0.395 | 0.234 |
| H3255 | 0.856 | 0.787 |  | 0.741 | 0.29 | 0.994 | 0.872 | 0.955 | 0.946 | 0.629 | 0.361 | 0.321 | 0.412 | 0.324 | 0.322 | 0.306 | 0.316 | 0.305 | 0.315 | 0.302 |
| UMC-11 | 0.538 | 0.577 | 0.903 | 0.852 | 0.373 | 1.01 | 0.922 | 1.15 | 0.848 | 0.512 | 0.502 | 0.462 | 0.406 | 0.415 | 0.208 | 0.345 | 0.34 | 0.378 | 0.365 | 0.305 |
| NCI-H727 | 0.64 | 0.727 | 1.34 | 1.3 | 0.452 | 0.259 | 0.314 | 0.308 | 0.231 | 0.215 | 0.323 | 0.436 | 0.344 | 0.272 | 0.23 | 0.689 | 0.617 | 0.641 | 0.604 | 0.62 |
| NCI-H1793 |  |  |  |  |  | 0.78 | 0.703 | 1.04 | 0.976 | 0.907 | 0.349 | 0.364 | 0.38 | 0.374 | 0.347 | 0.339 | 0.333 | 0.329 | 0.235 | 0.205 |
| NCI-H1299 | 1.07 | 1.09 | 1.02 | 0.996 | 0.781 | 0.881 | 1.06 | 0.973 | 0.981 | 0.654 |  |  |  |  |  |  |  |  |  |  |
| NCI-H1563 | 0.848 | 0.855 |  | 0.839 | 0.645 | 1.2 | 1.26 | 1.13 | 1.27 | 0.844 | 0.441 | 0.435 | 0.441 | 0.494 | 0.424 |  |  |  |  |  |
| NCI-H1648 |  |  |  |  |  |  |  |  |  |  |  |  |  |  |  | 0.271 | 0.232 | 0.314 | 0.275 | 0.253 |
| NCI-H1944 |  |  |  |  |  | 1.1 | 1.26 | 1.25 | 1.44 | 1.04 | 0.22 |  | 0.199 | 0.172 | 0.135 | 0.404 |  | 0.33 | 0.273 | 0.252 |
| LK-2 |  |  |  |  |  | 0.524 | 0.52 | 0.498 | 0.365 | 0.445 | 0.253 |  | 0.309 | 0.254 | 0.134 | 0.692 |  | 0.639 | 0.803 | 0.539 |
| NCI-H358 |  |  |  |  |  | 0.756 | 0.832 |  | 0.643 | 0.442 | 0.151 | 0.16 | 0.183 | 0.139 | 0.0975 | 0.12 | 0.153 | 0.152 | 0.153 | 0.12 |
| ChaGo-K-1 | 0.905 | 1.07 | 1.18 | 1.37 | 0.357 |  |  |  |  |  | 0.661 | 0.629 | 0.639 | 0.48 | 0.25 | 0.95 | 0.936 | 0.973 | 1.01 | 0.556 |
| Calu-6 | 1.16 | 0.973 | 1.04 | 1.05 | 0.78 | 0.985 | 0.946 | 0.994 | 0.894 | 0.788 |  |  |  |  |  |  |  |  |  |  |
| IA-LM | 0.814 |  | 0.836 |  | 0.163 | 0.385 | 0.563 | 0.562 | 0.393 | 0.166 |  |  |  |  |  |  |  |  |  |  |
| EBC-1 | 0.551 | 0.472 | 0.434 | 0.297 | 0.329 | 0.683 | 0.856 | 0.753 | 0.811 | 0.293 |  |  |  |  |  |  |  |  |  |  |
| NCI-H1395 |  |  |  |  |  | 0.792 | 1.09 | 1.35 | 1.01 | 1.08 | 0.423 | 0.471 | 0.436 | 0.442 | 0.32 | 0.697 |  | 0.634 | 0.594 | 0.485 |
| A549 |  |  |  |  |  | 0.602 | 0.476 | 0.579 | 0.592 | 0.594 |  |  |  |  |  |  |  |  |  |  |
| NCI-H1703 | 0.28 | 0.267 | 0.306 | 0.345 | 0.196 | 0.496 | 1.1 |  | 0.773 | 0.641 |  |  |  |  |  |  |  |  |  |  |
| NCI-H522 |  |  |  |  |  |  |  |  |  |  | 1.02 | 0.735 | 0.858 | 0.893 | 0.556 | 1.07 | 0.822 | 1.2 | 1.08 | 0.953 |
